Reference: patent publication EP4722207A1, “OXOISOINDOLINYL-SUBSTITUTED TETRAHYDROPYRIMIDINEDIONE DERIVATIVE AND USE THEREOF” (Gluetacs Therapeutics (Shanghai) Co., Ltd., priority 2023, dated 2024)

Columns and labels:
Assay type in all cases: cell-based
IKZF2 = target: T1, IKZF2 (Homo sapiens, UniProt Q96SW2+Q9UKS7); assay: Western-blot assay, substrate protein degradation in hPBMCs: IKZF2; settings: for substrate protein remaining % IKZF2: 24 hours of compound treatment, 50 nM and 500 nM; for IKZF2 substrate protein remaining %: compounds at 50 nM and 500 nM, 24 hours
T1 construct: effects of the compounds of the present disclosure on the expression of target proteins in cells; endogenous in cells; host or cells: human PBMCs (hPBMCs)
T1 sequence (Q9UKS7 whole entry): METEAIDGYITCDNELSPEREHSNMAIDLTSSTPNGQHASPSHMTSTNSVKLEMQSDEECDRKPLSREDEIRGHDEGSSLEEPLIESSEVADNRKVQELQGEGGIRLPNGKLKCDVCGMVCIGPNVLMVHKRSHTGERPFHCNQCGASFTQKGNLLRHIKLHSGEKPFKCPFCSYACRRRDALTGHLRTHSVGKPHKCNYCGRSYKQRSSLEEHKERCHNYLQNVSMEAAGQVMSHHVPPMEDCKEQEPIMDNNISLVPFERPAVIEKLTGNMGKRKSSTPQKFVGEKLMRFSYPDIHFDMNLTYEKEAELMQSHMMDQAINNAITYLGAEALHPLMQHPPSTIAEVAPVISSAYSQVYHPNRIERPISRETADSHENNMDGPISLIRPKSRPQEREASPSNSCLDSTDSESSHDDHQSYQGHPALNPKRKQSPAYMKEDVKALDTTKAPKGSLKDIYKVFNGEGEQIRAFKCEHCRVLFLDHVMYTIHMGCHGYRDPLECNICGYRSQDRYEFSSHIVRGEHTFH
T1 sequence (Q96SW2 whole entry): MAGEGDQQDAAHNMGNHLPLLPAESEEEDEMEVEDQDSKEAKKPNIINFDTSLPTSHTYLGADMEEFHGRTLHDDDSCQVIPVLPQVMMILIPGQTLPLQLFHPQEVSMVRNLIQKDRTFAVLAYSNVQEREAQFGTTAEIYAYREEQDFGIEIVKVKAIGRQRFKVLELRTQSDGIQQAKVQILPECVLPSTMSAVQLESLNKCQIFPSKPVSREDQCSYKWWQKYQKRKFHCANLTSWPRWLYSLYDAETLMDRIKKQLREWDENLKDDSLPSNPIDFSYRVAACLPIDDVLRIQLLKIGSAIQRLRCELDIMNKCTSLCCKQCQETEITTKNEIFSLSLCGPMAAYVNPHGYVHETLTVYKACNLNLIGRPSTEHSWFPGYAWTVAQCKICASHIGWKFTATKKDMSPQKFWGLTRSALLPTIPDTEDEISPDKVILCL
T1 sequence (Q16531 whole entry partner): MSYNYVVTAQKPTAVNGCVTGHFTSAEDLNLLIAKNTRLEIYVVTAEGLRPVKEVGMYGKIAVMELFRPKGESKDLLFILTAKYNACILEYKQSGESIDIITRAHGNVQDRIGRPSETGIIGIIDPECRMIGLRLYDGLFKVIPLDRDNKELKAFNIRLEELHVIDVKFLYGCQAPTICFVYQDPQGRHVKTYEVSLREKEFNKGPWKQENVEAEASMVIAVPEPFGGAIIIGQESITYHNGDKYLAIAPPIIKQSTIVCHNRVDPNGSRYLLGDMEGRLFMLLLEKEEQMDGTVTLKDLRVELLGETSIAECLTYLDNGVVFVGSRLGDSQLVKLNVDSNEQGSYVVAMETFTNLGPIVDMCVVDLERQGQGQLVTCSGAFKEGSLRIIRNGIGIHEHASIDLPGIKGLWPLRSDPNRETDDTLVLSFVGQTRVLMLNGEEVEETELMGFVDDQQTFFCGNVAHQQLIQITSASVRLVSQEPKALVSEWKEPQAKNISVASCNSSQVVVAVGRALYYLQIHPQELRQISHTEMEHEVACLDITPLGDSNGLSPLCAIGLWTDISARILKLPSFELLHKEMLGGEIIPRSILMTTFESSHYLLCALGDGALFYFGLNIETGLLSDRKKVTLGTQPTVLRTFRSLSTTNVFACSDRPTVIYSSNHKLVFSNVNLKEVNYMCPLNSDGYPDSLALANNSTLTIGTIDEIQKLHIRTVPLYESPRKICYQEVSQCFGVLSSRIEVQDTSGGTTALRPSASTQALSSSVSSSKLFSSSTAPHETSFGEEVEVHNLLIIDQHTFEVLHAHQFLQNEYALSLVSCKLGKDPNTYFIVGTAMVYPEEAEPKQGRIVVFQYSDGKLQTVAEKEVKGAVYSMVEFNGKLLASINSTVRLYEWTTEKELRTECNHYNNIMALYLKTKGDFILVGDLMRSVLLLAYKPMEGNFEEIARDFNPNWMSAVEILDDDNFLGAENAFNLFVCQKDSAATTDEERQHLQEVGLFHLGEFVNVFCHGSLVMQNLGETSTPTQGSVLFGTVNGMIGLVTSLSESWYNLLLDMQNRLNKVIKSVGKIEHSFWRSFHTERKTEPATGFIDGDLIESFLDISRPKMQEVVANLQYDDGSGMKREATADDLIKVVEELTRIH

IKZF3 = target: T2, IKZF3 (Homo sapiens, UniProt Q96SW2+Q9UKT9); assay: Western-blot assay, substrate protein degradation in hPBMCs: IKZF3; settings: for substrate protein remaining % IKZF3: 24 hours of compound treatment, 50 nM and 500 nM; for IKZF3 substrate protein remaining %: compounds at 50 nM and 500 nM, 24 hours
T2 construct: effects of the compounds of the present disclosure on the expression of target proteins in cells; endogenous in cells; host or cells: human PBMCs (hPBMCs)
T2 sequence (Q9UKT9 whole entry): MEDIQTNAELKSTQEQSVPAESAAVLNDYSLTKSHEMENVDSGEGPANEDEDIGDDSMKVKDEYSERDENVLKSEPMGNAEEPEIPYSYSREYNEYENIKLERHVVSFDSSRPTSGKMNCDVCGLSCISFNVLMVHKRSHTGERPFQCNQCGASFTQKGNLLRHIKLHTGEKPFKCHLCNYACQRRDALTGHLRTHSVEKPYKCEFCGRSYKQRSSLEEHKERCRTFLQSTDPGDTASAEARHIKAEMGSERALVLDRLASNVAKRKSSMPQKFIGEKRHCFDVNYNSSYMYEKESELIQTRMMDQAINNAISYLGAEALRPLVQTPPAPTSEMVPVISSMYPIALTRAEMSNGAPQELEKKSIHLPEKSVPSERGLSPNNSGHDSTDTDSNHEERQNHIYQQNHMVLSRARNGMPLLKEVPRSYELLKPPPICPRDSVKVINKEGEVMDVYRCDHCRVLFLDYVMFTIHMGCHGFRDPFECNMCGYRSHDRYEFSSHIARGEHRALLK
T2 sequence (Q96SW2 whole entry): as the sequence (Q96SW2 whole entry) above
T2 sequence (Q16531 whole entry partner): as the sequence (Q16531 whole entry partner) above

GSPT1 = target: T3, GSPT1 (Homo sapiens, UniProt P15170+Q96SW2); assay: Western-blot assay, substrate protein degradation in hPBMCs: GSPT1; settings: for substrate protein remaining % GSPT1: 24 hours of compound treatment, 50 nM and 500 nM; for GSPT1 substrate protein remaining %: compounds at 50 nM and 500 nM, 24 hours
T3 construct: effects of the compounds of the present disclosure on the expression of target proteins in cells; endogenous in cells; host or cells: human PBMCs (hPBMCs)
T3 sequence (P15170 whole entry): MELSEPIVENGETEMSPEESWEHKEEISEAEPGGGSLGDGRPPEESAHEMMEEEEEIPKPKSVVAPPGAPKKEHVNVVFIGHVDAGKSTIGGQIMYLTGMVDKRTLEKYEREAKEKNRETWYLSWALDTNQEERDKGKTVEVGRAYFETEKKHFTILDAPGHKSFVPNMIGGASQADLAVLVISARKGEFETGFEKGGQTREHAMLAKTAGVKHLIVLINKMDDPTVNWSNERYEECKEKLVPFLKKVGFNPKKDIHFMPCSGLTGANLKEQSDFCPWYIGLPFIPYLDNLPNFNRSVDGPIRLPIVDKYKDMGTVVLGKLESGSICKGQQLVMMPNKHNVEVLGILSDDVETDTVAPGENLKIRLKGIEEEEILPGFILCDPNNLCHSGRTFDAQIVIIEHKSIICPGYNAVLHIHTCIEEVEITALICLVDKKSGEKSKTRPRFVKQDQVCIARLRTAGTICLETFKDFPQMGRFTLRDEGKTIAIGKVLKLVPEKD
T3 sequence (Q96SW2 whole entry): as the sequence (Q96SW2 whole entry) above
T3 sequence (Q16531 whole entry partner): as the sequence (Q16531 whole entry partner) above

IKZF1 = target: T4, IKZF1 (Homo sapiens, UniProt Q13422+Q96SW2); assay: Western-blot assay, substrate protein degradation in hPBMCs: IKZF1; settings: for substrate protein remaining % IKZF1: 24 hours of compound treatment, 50 nM and 500 nM; for IKZF1 substrate protein remaining %: compounds at 50 nM and 500 nM, 24 hours
T4 construct: effects of the compounds of the present disclosure on the expression of target proteins in cells; endogenous in cells; host or cells: human PBMCs (hPBMCs)
T4 sequence (Q13422 whole entry): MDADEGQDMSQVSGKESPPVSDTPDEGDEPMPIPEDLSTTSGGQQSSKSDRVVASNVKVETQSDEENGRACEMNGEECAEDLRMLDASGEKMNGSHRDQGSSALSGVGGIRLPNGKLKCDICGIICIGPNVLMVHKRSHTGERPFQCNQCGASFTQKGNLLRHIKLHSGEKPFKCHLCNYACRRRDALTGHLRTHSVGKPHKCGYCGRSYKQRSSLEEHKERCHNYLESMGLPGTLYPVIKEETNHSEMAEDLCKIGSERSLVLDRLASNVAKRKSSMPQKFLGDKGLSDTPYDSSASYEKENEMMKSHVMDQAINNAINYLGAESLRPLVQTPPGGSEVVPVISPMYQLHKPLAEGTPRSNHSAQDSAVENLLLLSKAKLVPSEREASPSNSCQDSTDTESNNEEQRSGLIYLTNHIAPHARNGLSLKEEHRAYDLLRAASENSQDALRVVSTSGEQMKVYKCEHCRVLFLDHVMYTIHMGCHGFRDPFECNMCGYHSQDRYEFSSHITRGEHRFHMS
T4 sequence (Q96SW2 whole entry): as the sequence (Q96SW2 whole entry) above
T4 sequence (Q16531 whole entry partner): as the sequence (Q16531 whole entry partner) above

WEE1 = target: T5, WEE1 (Homo sapiens, UniProt P30291+Q96SW2); assay: Western-blot assay, substrate protein degradation in hPBMCs: WEE1; settings: for substrate protein remaining % WEE1: 24 hours of compound treatment, 50 nM and 500 nM; for WEE1 substrate protein remaining %: compounds at 50 nM and 500 nM, 24 hours
T5 construct: effects of the compounds of the present disclosure on the expression of target proteins in cells; endogenous in cells; host or cells: human PBMCs (hPBMCs)

CK1α = target: T6, CK1α (Homo sapiens, UniProt P48729+Q96SW2); assay: Western-blot assay, substrate protein degradation in hPBMCs: CK1α; settings: for substrate protein remaining % CK1α: 24 hours of compound treatment, 50 nM and 500 nM; for CK1α substrate protein remaining %: compounds at 50 nM and 500 nM, 24 hours
T6 construct: effects of the compounds of the present disclosure on the expression of target proteins in cells; endogenous in cells; host or cells: human PBMCs (hPBMCs)
T6 sequence (P48729 whole entry): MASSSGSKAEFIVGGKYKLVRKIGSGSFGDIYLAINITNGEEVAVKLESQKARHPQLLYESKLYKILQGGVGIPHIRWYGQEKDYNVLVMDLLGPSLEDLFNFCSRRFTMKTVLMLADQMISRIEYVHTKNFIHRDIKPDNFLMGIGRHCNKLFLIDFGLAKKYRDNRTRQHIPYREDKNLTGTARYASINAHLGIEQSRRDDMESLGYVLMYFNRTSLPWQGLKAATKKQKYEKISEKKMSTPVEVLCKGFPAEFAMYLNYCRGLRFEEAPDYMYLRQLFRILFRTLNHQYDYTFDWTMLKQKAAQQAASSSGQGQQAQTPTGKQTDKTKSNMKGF
T6 sequence (Q96SW2 whole entry): as the sequence (Q96SW2 whole entry) above
T6 sequence (Q16531 whole entry partner): as the sequence (Q16531 whole entry partner) above

O=C1CCN(N2C(=O)c3ccc(CN4CCN(c5n[nH]c6cc(F)ccc56)CC4)cc3C2=O)C(=O)N1 [GT-07527, 2-(2,4-dioxotetrahydropyrimidin-1(2H)-yl)-5-((4-(6-fluoro-1H-indazol-3-yl)piperazin-1-yl)methyl)isoindoline-1,3-dione]
substrate protein remaining % IKZF2 (IKZF2): B (80%< substrate protein remaining %≤ 100%)
substrate protein remaining % IKZF3 (IKZF3): B (80%< substrate protein remaining %≤ 100%)
substrate protein remaining % GSPT1 (GSPT1): A (0% ≤ substrate protein remaining % ≤ 80%)
substrate protein remaining % IKZF1 (IKZF1): B (80%< substrate protein remaining %≤ 100%)
substrate protein remaining % WEE1 (WEE1): B (80%< substrate protein remaining %≤ 100%)
substrate protein remaining % CK1α (CK1α): A (0% ≤ substrate protein remaining % ≤ 80%)

O=C1CCN(N2C(=O)c3ccc(CN4CCN(C(c5ccc(F)cc5)c5ccc(F)cc5)CC4)cc3C2=O)C(=O)N1 [GT-05268, 5-((4-(bis(4-fluorophenyl)methyl)piperazin-1-yl)methyl)-2-(2,4-dioxotetrahydropyrimidin-1(2H)-yl)isoindoline-1,3-dione]
IKZF2 substrate protein remaining % (IKZF2): B ("B" is defined as 80%< substrate protein remaining %≤ 100%)
IKZF3 substrate protein remaining % (IKZF3): A ("A" is defined as 0% ≤ substrate protein remaining % ≤ 80%)
GSPT1 substrate protein remaining % (GSPT1): A ("A" is defined as 0% ≤ substrate protein remaining % ≤ 80%)
IKZF1 substrate protein remaining % (IKZF1): B ("B" is defined as 80%< substrate protein remaining %≤ 100%)
WEE1 substrate protein remaining % (WEE1): B ("B" is defined as 80%< substrate protein remaining %≤ 100%)
CK1α substrate protein remaining % (CK1α): A ("A" is defined as 0% ≤ substrate protein remaining % ≤ 80%)

O=C1CCN(N2C(=O)c3ccc(CN4CCC(c5ccsc5)CC4)cc3C2=O)C(=O)N1 [GT-07420, 2-(2,4-dioxotetrahydropyrimidin-1(2H)-yl)-5-((4-(thiophen-3-yl)piperidin-1-yl)methyl)isoindoline-1,3-dione]
substrate protein remaining % IKZF2 (IKZF2): B (80%< substrate protein remaining %≤ 100%)
substrate protein remaining % IKZF3 (IKZF3): B (80%< substrate protein remaining %≤ 100%)
substrate protein remaining % GSPT1 (GSPT1): A (0% ≤ substrate protein remaining % ≤ 80%)
substrate protein remaining % IKZF1 (IKZF1): B (80%< substrate protein remaining %≤ 100%)
substrate protein remaining % WEE1 (WEE1): B (80%< substrate protein remaining %≤ 100%)
substrate protein remaining % CK1α (CK1α): A (0% ≤ substrate protein remaining % ≤ 80%)

O=C1CCN(N2Cc3cc(CN4CCN(c5c(Cl)ccnc5Cl)CC4)ccc3C2=O)C(=O)N1 [GT-06974, 1-(5-((4-(2,4-dichloropyridin-3-yl)piperazin-1-yl)methyl)-1-oxoisoindolin-2-yl)dihydropyrimidine-2,4(1H,3H)-dione]
IKZF2 substrate protein remaining % (IKZF2): B ("B" is defined as 80%< substrate protein remaining %≤ 100%)
IKZF3 substrate protein remaining % (IKZF3): A ("A" is defined as 0% ≤ substrate protein remaining % ≤ 80%)
GSPT1 substrate protein remaining % (GSPT1): B ("B" is defined as 80%< substrate protein remaining %≤ 100%)
IKZF1 substrate protein remaining % (IKZF1): A ("A" is defined as 0% ≤ substrate protein remaining % ≤ 80%)
WEE1 substrate protein remaining % (WEE1): A ("A" is defined as 0% ≤ substrate protein remaining % ≤ 80%)
CK1α substrate protein remaining % (CK1α): B ("B" is defined as 80%< substrate protein remaining %≤ 100%)

O=C1CCN(N2C(=O)c3ccc(CN4CCN(c5ccnc(Br)c5F)CC4)cc3C2=O)C(=O)N1 [GT-07167, 5-((4-(2-bromo-3-fluoropyridin-4-yl)piperazin-1-yl)methyl)-2-(2,4-dioxotetrahydropyrimidin-1(2H)-yl)isoindoline-1,3-dione]
IKZF2 substrate protein remaining % (IKZF2): A ("A" is defined as 0% ≤ substrate protein remaining % ≤ 80%)
IKZF3 substrate protein remaining % (IKZF3): B ("B" is defined as 80%< substrate protein remaining %≤ 100%)
GSPT1 substrate protein remaining % (GSPT1): A ("A" is defined as 0% ≤ substrate protein remaining % ≤ 80%)
IKZF1 substrate protein remaining % (IKZF1): B ("B" is defined as 80%< substrate protein remaining %≤ 100%)
WEE1 substrate protein remaining % (WEE1): B ("B" is defined as 80%< substrate protein remaining %≤ 100%)
CK1α substrate protein remaining % (CK1α): B ("B" is defined as 80%< substrate protein remaining %≤ 100%)

Cc1cc(C2CCN(Cc3ccc4c(c3)C(=O)N(N3CCC(=O)NC3=O)C4=O)CC2)cs1 [GT-07421, 2-(2,4-dioxotetrahydropyrimidin-1(2H)-yl)-5-((4-(5-methylthiophen-3-yl)piperidin-1-yl)methyl)isoindoline-1,3-dione]
substrate protein remaining % IKZF2 (IKZF2): B (80%< substrate protein remaining %≤ 100%)
substrate protein remaining % IKZF3 (IKZF3): B (80%< substrate protein remaining %≤ 100%)
substrate protein remaining % GSPT1 (GSPT1): A (0% ≤ substrate protein remaining % ≤ 80%)
substrate protein remaining % IKZF1 (IKZF1): B (80%< substrate protein remaining %≤ 100%)
substrate protein remaining % WEE1 (WEE1): B (80%< substrate protein remaining %≤ 100%)
substrate protein remaining % CK1α (CK1α): A (0% ≤ substrate protein remaining % ≤ 80%)

O=C1CCN(N2Cc3cc(CN4CCC(c5ccccc5Cl)CC4)ccc3C2=O)C(=O)N1 [GT-06887, 1-(5-((4-(2-chlorophenyl)piperidin-1-yl)methyl)-1-oxoisoindolin-2-yl)dihydropyrimidine-2,4(1H,3H)-dione]
IKZF2 substrate protein remaining % (IKZF2): A ("A" is defined as 0% ≤ substrate protein remaining % ≤ 80%)
IKZF3 substrate protein remaining % (IKZF3): B ("B" is defined as 80%< substrate protein remaining %≤ 100%)
GSPT1 substrate protein remaining % (GSPT1): A ("A" is defined as 0% ≤ substrate protein remaining % ≤ 80%)
IKZF1 substrate protein remaining % (IKZF1): B ("B" is defined as 80%< substrate protein remaining %≤ 100%)
WEE1 substrate protein remaining % (WEE1): A ("A" is defined as 0% ≤ substrate protein remaining % ≤ 80%)
CK1α substrate protein remaining % (CK1α): B ("B" is defined as 80%< substrate protein remaining %≤ 100%)

CC1(C)CCC(CN2CC3CCC(C2)N3Cc2ccc3c(c2)C(=O)N(N2CCC(=O)NC2=O)C3=O)=C(c2ccc(Cl)cc2)C1 [GT-07333, 5-((3-((4'-chloro-5,5-dimethyl-3,4,5,6-tetrahydro-[1,1'-biphenyl]-2-yl)methyl)-3,8-diazabicyclo[3.2.1]octan-8-yl)methyl)-2-(2,4-dioxotetrahydropyrimidin-1(2H)-yl)isoindoline-1,3-dione]
substrate protein remaining % IKZF2 (IKZF2): B (80%< substrate protein remaining %≤ 100%)
substrate protein remaining % IKZF3 (IKZF3): B (80%< substrate protein remaining %≤ 100%)
substrate protein remaining % GSPT1 (GSPT1): A (0% ≤ substrate protein remaining % ≤ 80%)
substrate protein remaining % IKZF1 (IKZF1): B (80%< substrate protein remaining %≤ 100%)
substrate protein remaining % WEE1 (WEE1): B (80%< substrate protein remaining %≤ 100%)
substrate protein remaining % CK1α (CK1α): B (80%< substrate protein remaining %≤ 100%)

O=C1CCN(N2Cc3cc(CN4CCN(c5c(F)cncc5Cl)CC4)ccc3C2=O)C(=O)N1 [GT-07171]
IKZF2 substrate protein remaining % (IKZF2): B ("B" is defined as 80%< substrate protein remaining %≤ 100%)
IKZF3 substrate protein remaining % (IKZF3): B ("B" is defined as 80%< substrate protein remaining %≤ 100%)
GSPT1 substrate protein remaining % (GSPT1): B ("B" is defined as 80%< substrate protein remaining %≤ 100%)
IKZF1 substrate protein remaining % (IKZF1): B ("B" is defined as 80%< substrate protein remaining %≤ 100%)
WEE1 substrate protein remaining % (WEE1): A ("A" is defined as 0% ≤ substrate protein remaining % ≤ 80%)
CK1α substrate protein remaining % (CK1α): B ("B" is defined as 80%< substrate protein remaining %≤ 100%)

O=C1CCN(N2C(=O)c3ccc(CN4CC=C(c5cccc(F)c5Cl)CC4)cc3C2=O)C(=O)N1 [GT-06896, 5-((4-(2-chloro-3-fluorophenyl)-3,6-dihydropyridin-1(2H)-yl)methyl)-2-(2,4-dioxotetrahydropyrimidin-1(2H)-yl)isoindoline-1,3-dione]
IKZF2 substrate protein remaining % (IKZF2): B ("B" is defined as 80%< substrate protein remaining %≤ 100%)
IKZF3 substrate protein remaining % (IKZF3): B ("B" is defined as 80%< substrate protein remaining %≤ 100%)
GSPT1 substrate protein remaining % (GSPT1): B ("B" is defined as 80%< substrate protein remaining %≤ 100%)
IKZF1 substrate protein remaining % (IKZF1): A ("A" is defined as 0% ≤ substrate protein remaining % ≤ 80%)
WEE1 substrate protein remaining % (WEE1): B ("B" is defined as 80%< substrate protein remaining %≤ 100%)
CK1α substrate protein remaining % (CK1α): B ("B" is defined as 80%< substrate protein remaining %≤ 100%)

O=C1CCN(N2Cc3cc(CN4CCN(c5nsc6ccccc56)CC4)ccc3C2=O)C(=O)N1 [GT-04865, 1-(5-((4-(benzo[d]isothiazol-3-yl)piperazin-1-yl)methyl)-1-oxoisoindolin-2-yl)dihydropyrimidine-2,4(1H,3H)-dione]
IKZF2 substrate protein remaining % (IKZF2): B ("B" is defined as 80%< substrate protein remaining %≤ 100%)
IKZF3 substrate protein remaining % (IKZF3): B ("B" is defined as 80%< substrate protein remaining %≤ 100%)
GSPT1 substrate protein remaining % (GSPT1): A ("A" is defined as 0% ≤ substrate protein remaining % ≤ 80%)
IKZF1 substrate protein remaining % (IKZF1): A ("A" is defined as 0% ≤ substrate protein remaining % ≤ 80%)
WEE1 substrate protein remaining % (WEE1): B ("B" is defined as 80%< substrate protein remaining %≤ 100%)
CK1α substrate protein remaining % (CK1α): B ("B" is defined as 80%< substrate protein remaining %≤ 100%)

Cc1cccc(N2CCN(Cc3ccc4c(c3)C(=O)N(N3CCC(=O)NC3=O)C4=O)CC2)n1 [GT-05352, 2-(2,4-dioxotetrahydropyrimidin-1(2H)-yl)-5-((4-(6-methylpyridin-2-yl)piperazin-1-yl)methyl)isoindoline-1,3-dione]
IKZF2 substrate protein remaining % (IKZF2): A ("A" is defined as 0% ≤ substrate protein remaining % ≤ 80%)
IKZF3 substrate protein remaining % (IKZF3): B ("B" is defined as 80%< substrate protein remaining %≤ 100%)
GSPT1 substrate protein remaining % (GSPT1): A ("A" is defined as 0% ≤ substrate protein remaining % ≤ 80%)
IKZF1 substrate protein remaining % (IKZF1): B ("B" is defined as 80%< substrate protein remaining %≤ 100%)
WEE1 substrate protein remaining % (WEE1): B ("B" is defined as 80%< substrate protein remaining %≤ 100%)
CK1α substrate protein remaining % (CK1α): B ("B" is defined as 80%< substrate protein remaining %≤ 100%)
